According to patent US20190038674A1, “Formulation for the Treatment of Diabetes” (priority 2013, published 2019):
Values joined by “and” are separate entries in the source; they are usually repeats but may differ in a detail not shown here. Equal values may be shown once.

What was measured:
Assay type in all cases: in vivo, Wistar Albino rat
[1] = tested on: streptozotocin treated diabetic rats; test: Serum lipid profile (cholesterol, LDL, HDL, triglyceride) in streptozotocin treated diabetic rats; settings: for Lipid profile Cholesterol / Lipid profile HDL / Lipid profile LDL / Lipid profile Triglyceride: after 15th day, Glyclazide 1.44 mg/200 g body weight daily
Description: (§1) Diabetes was induced in rats by the intra peritoneal injection of streptozotocin (Himedia) at a dose of 50 mg/kg body weight dissolved in citrate buffer (0.1 M, pH 4.5) in the volume of 1 ml/kg. The diabetic rats were given 5% w/v glucose solution orally in order to prevent hypoglycemia during the first day after the streptozotocin administration. Three days after the injection (six group), the blood glucose levels were measured and the animals with blood glucose levels above 300 mg/dl were considered as being diabetic and were used in the subsequent experiments. In all the experiments, rats were fasted for 16 hr prior to streptozotocin injection. • a. Total units=202.5 • b. 1 ml=40 units, 0.1 ml=4 units • c. Therefore total units 202.5/40 units=5.06 ml of streptozotocin solution • d. Freshly prepared streptozotocin solution (5.06 ml of solution/36 rats according to body weight) fed as a single dose only once to induce diabetes.
(§2) Experimental rats were divided in 4 groups of 6 rats per group and 4th group further divided in 4 groups with 6 rats in each sub group. The details of treatments were given below:
(§3) Blood samples were collected retro-orbitally from the inner canthus of the eye under light ether anesthesia using capillary tubes (Micro Hemocrit Capillariea, Mucaps) as described by Sorg and Buckner (1964); Blood was transferred into fresh vials and serum was separated by centrifuging at 2000 rpm for 2 min. Blood glucose levels were measured using Accu-Check glucose kit.
(§4) To observe the effect of administration of cow urine powder SMP blends and standard drug glyclazide diabetic rats was determined by measuring the fasting blood glucose levels and serum lipid profiles.
(§5) Day 3 of induction was designed as day 1 for administration of the standard drug glyclazide and cow urine SMP blends to diabetic rats, fasting blood glucose levels measured on days 1, 5, 10 and 15 of the experiment period. Other parameters were determined on after day 15 and residual study was carried out for another 15 days to observe the reappearance diabetes.
The serum lipid profile parameters such as cholesterol, HDL, LDL and triglycerides content were studied by using blood serum obtained during the experiments.
Cholesterol content in the blood samples were analyzed by using Bio Chemistry
Analyzer which is working on the principle of Lambert's-Beer's law.
For estimation of triglycerides, Bio-chemistry Analyzer was used.

[2] = tested on: streptozotocin treated diabetic rats; test: Residual effect on blood glucose levels of diabetic rats during 15-day residual period after treatment; settings: residual period after withdrawal, Glyclazide 1.44 mg/200 g
Description: as §5
(§6) Blood glucose was measured by using Accu-Check Active Glucometer (Roche) and the result was expressed as milligram per deciliter (mg/dl). This instrument is working on the principle of photometry.
Residual effect of standard drug glyclazide group, skim milk powder group and cow urine powder SMP blends groups (100, 200 and 400 mg) for residual of blood glucose levels in streptozotocin treated rats for 15 days and observations were recorded.

[3] = tested on: streptozotocin treated diabetic rats; test: Fasting blood glucose in streptozotocin induced diabetic rats, 15 days of treatment; settings: for Blood glucose on 15th day: Glyclazide 1.44 mg/200 g body weight, single oral dose daily, day 1 to 15; for Blood glucose on 1st day: before treatment, group later given Glyclazide 1.44 mg/200 g body weight oral daily
Description: Albino Wistar rats of both sex (male and female) were procured from the laboratory of Columbia Institute of Pharmacy Tekari, Raipur 493111 (C.G.), India, and were maintained under a 12 h light/dark cycle and allowed for feed and water without limit. Approved experimental protocol in accordance with the guidelines provided by the committee for the control and supervision of experiments on animals (CPCSEA). The experimental rats were registered by CPCSEA and registration number was 1321/ac/10/CPCSEA.
A. Species: Wistar Albino rat
as §1, §2
c. Group 3—Standard drug group—Diabetic animals received daily a single oral dose of the reference drug Glyclazide 1.44 mg/200 g body weight from day 1 to 15. […]
as §3, §4, §5, §6

[4] = starting value, Glyclazide group

Q: Cc1ccc(S(=O)(=O)NC(=O)NN2CC3CCCC3C2)cc1 (centres unmarked) [Standard Glyclazide, Glyclazide] was tested. Which “Lipid profile Cholesterol” value [1] did it give?
A: The value was 67.72 ± 3.37 mg/dL.

Q: What about the “Lipid profile HDL” value [1] of the same compound?
A: The value was 51.55 ± 1.91 mg/dL.

Q: And the “Lipid profile LDL” value [1]?
A: The value was 16.17 ± 5.25 mg/dL.

Q: And the “Lipid profile Triglyceride” value [1]?
A: The value was 95.35 ± 3.10 mg/dL.

Q: What about the “Lipid profile Cholesterol” value ([1]; listed as glyclazide) of the same compound?
A: The value was 67.72 mg/dL.

Q: And the “Lipid profile HDL” value ([1]; listed as glyclazide)?
A: Its value is 51.55 mg/dL.

Q: What about the “Lipid profile LDL” value ([1]; listed as glyclazide) of the same compound?
A: Its value is 16.17 mg/dL.

Q: What about the “Lipid profile Triglyceride” value ([1]; listed as glyclazide) of the same compound?
A: The value was 95.35 mg/dL.

Q: What about the “blood HDL level before treatment (increased from)” value [1, 4] of the same compound?
A: The value was 41.75 mg/dL.

Q: And the “blood LDL level before treatment (reduced from)” value [1, 4]?
A: The value was 83.73 mg/dL.

Q: And the “blood cholesterol level before treatment (reduced from)” value [1, 4]?
A: The value was 125.44 mg/dL.

Q: And the “triglyceride level before treatment (reduced from)” value [1, 4]?
A: The value was 187.96 mg/dL.

Q: What about the “Blood glucose level 20th Day” value [2] of the same compound?
A: The value was 176.50 ± 29.75 mg/dL.

Q: And the “Blood glucose level 25th Day” value [2]?
A: The value was 174.76 ± 27.42 mg/dL.

Q: And the “Blood glucose level 30th Day” value [2]?
A: Its value is 201.57 ± 29.85 mg/dL.

Q: What about the “Blood glucose level 20th Day” value ([2]; listed as glyclazide) of the same compound?
A: The value was 176.50 mg/dL.

Q: And the “Blood glucose level 25th Day” value ([2]; listed as glyclazide)?
A: Its value is 174.76 mg/dL.

Q: What about the “Blood glucose level 30th Day” value ([2]; listed as glyclazide) of the same compound?
A: The value was 201.57 mg/dL.

Q: And the “Blood glucose on 15th day” value [3]?
A: Its value is 125.25 ± 12.33 mg/dL.

Q: What about the “Blood glucose on 15th day” value ([3]; listed as glyclazide) of the same compound?
A: Its value is 125.25 mg/dL and 125.2 mg/dL.

Q: What about the “Blood glucose on 1st day” value [3] of the same compound?
A: Its value is 599.16 ± 57.10 mg/dL.

Q: And the “Blood glucose on 1st day” value ([3]; listed as glyclazide)?
A: Its value is 599.1 mg/dL.

Q: What about the “percent reduce of blood glucose on 15th day” value ([3]; vs 1st day, Glyclazide 1.44 mg/200 g body weight daily) of the same compound?
A: The value was “(79.09%)”.
